PubChem BioAssay AID1963983 (Molecular Pharmacology Branch, DTP, NCI, 2024)

System: 186277-243-T-J2-PDC multi-cell spheroid viability
Test: Anticancer human tumor 186277-243-T-J2-PDC patient-derived colon adenocarcinoma cell line growth inhibition [PI3K]
Settings: for IC50: curve of first compound; for viability, T/C: stronger effect = lower value
Method in brief: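 Tumor cells grown as multi-cell spheroids with HUVEC endothelial cells and MSC fibroblast-like stroma were treated with targeted agents combined with inavolisib, alpelisib, duvelisib or copanlisib. Doses fell in half-log steps from near clinical Cmax, else from 10 microM. Viability was measured.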

[1] = second compound 0.0316 µM, first compound 0.0316 µM
[2] = second compound 0.0316 µM, first compound 0.1 µM
[3] = second compound 0.0316 µM, first compound 0.316 µM
[4] = second compound 0.0316 µM, first compound 1 µM
[5] = second compound 0.1 µM, first compound 0.0316 µM
[6] = second compound 0.1 µM, first compound 0.1 µM
[7] = second compound 0.1 µM, first compound 0.316 µM
[8] = second compound 0.1 µM, first compound 1 µM
[9] = second compound 0.316 µM, first compound 0.0316 µM
[10] = second compound 0.316 µM, first compound 0.1 µM
[11] = second compound 0.316 µM, first compound 0.316 µM
[12] = second compound 0.316 µM, first compound 1 µM
[13] = second compound 1 µM, first compound 0.0316 µM
[14] = second compound 1 µM, first compound 0.1 µM
[15] = second compound 1 µM, first compound 0.316 µM
[16] = second compound 1 µM, first compound 1 µM
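Further: spheroids exposed to compounds for seven days before viability reading.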
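Wherever viability, T/C is given: 100% = DMSO vehicle control viability.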

## C=CC(=O)N1CCN(c2nc(=O)n(-c3c(C)ccnc3C(C)C)c3nc(-c4c(O)cccc4F)c(F)cc23)C(C)C1 (centres undefined) + CC(Nc1ccc2c(c1)OCCn1cc(N3C(=O)OCC3C(F)F)nc1-2)C(N)=O
Second compound 0.00316 µM
  IC50: > 10 µM
Second compound 0.01 µM
  IC50: > 10 µM
Second compound 0.0316 µM
  IC50: > 10 µM
Second compound 0.1 µM
  IC50: > 10 µM
Second compound 0.316 µM
  IC50: 4.99 µM
Second compound 1 µM
  IC50: < 0.0316 µM
Second compound 0.00316 µM, first compound 0.0316 µM
  viability, T/C: 109%
Second compound 0.00316 µM, first compound 0.1 µM
  viability, T/C: 88.5%
Second compound 0.00316 µM, first compound 0.316 µM
  viability, T/C: 94.7%
Second compound 0.00316 µM, first compound 1 µM
  viability, T/C: 94.9%
Second compound 0.00316 µM, first compound 3.16 µM
  viability, T/C: 109%
Second compound 0.00316 µM, first compound 10 µM
  viability, T/C: 93.9%
Second compound 0.01 µM, first compound 0.0316 µM
  viability, T/C: 103%
Second compound 0.01 µM, first compound 0.1 µM
  viability, T/C: 99.4%
Second compound 0.01 µM, first compound 0.316 µM
  viability, T/C: 107%
Second compound 0.01 µM, first compound 1 µM
  viability, T/C: 101%
Second compound 0.01 µM, first compound 3.16 µM
  viability, T/C: 103%
Second compound 0.01 µM, first compound 10 µM
  viability, T/C: 102%
[1]
  viability, T/C: 104%
[2]
  viability, T/C: 102%
[3]
  viability, T/C: 105%
[4]
  viability, T/C: 112%
Second compound 0.0316 µM, first compound 3.16 µM
  viability, T/C: 115%
Second compound 0.0316 µM, first compound 10 µM
  viability, T/C: 87.2%
[5]
  viability, T/C: 103%
[6]
  viability, T/C: 107%
[7]
  viability, T/C: 88.3%
[8]
  viability, T/C: 94.4%
Second compound 0.1 µM, first compound 3.16 µM
  viability, T/C: 86.6%
Second compound 0.1 µM, first compound 10 µM
  viability, T/C: 74.4%
[9]
  viability, T/C: 82.2%
[10]
  viability, T/C: 74.8%
[11]
  viability, T/C: 67.7%
[12]
  viability, T/C: 74.7%
Second compound 0.316 µM, first compound 3.16 µM
  viability, T/C: 56.9%
Second compound 0.316 µM, first compound 10 µM
  viability, T/C: 37.4%
[13]
  viability, T/C: 48.2%
[14]
  viability, T/C: 50.1%
[15]
  viability, T/C: 50.9%
[16]
  viability, T/C: 48.1%
Second compound 1 µM, first compound 3.16 µM
  viability, T/C: 32.8%
Second compound 1 µM, first compound 10 µM
  viability, T/C: 22.9%

## CCN1CCN(Cc2ccc(Nc3ncc(F)c(-c4cc(F)c5nc(C)n(C(C)C)c5c4)n3)nc2)CC1 + CC(Nc1ncnc2nc[nH]c12)c1cc2cccc(Cl)c2c(=O)n1-c1ccccc1
Second compound 0.0316 µM
  IC50: > 1 µM
Second compound 0.1 µM
  IC50: > 1 µM
Second compound 0.316 µM
  IC50: > 1 µM
Second compound 1 µM
  IC50: > 1 µM
Second compound 3.16 µM
  IC50: > 1 µM
Second compound 10 µM
  IC50: > 1 µM
Second compound 0.0316 µM, first compound 0.00316 µM
  viability, T/C: 94.6%
Second compound 0.0316 µM, first compound 0.01 µM
  viability, T/C: 85.9%
[1]
  viability, T/C: 104%
[2]
  viability, T/C: 108%
[3]
  viability, T/C: 166%
[4]
  viability, T/C: 160%
Second compound 0.1 µM, first compound 0.00316 µM
  viability, T/C: 98.9%
Second compound 0.1 µM, first compound 0.01 µM
  viability, T/C: 84%
[5]
  viability, T/C: 103%
[6]
  viability, T/C: 120%
[7]
  viability, T/C: 148%
[8]
  viability, T/C: 148%
Second compound 0.316 µM, first compound 0.00316 µM
  viability, T/C: 93.5%
Second compound 0.316 µM, first compound 0.01 µM
  viability, T/C: 97.6%
[9]
  viability, T/C: 100%
[10]
  viability, T/C: 124%
[11]
  viability, T/C: 136%
[12]
  viability, T/C: 143%
Second compound 1 µM, first compound 0.00316 µM
  viability, T/C: 104%
Second compound 1 µM, first compound 0.01 µM
  viability, T/C: 99.4%
[13]
  viability, T/C: 104%
[14]
  viability, T/C: 120%
[15]
  viability, T/C: 155%
[16]
  viability, T/C: 129%
Second compound 3.16 µM, first compound 0.00316 µM
  viability, T/C: 102%
Second compound 3.16 µM, first compound 0.01 µM
  viability, T/C: 107%
Second compound 3.16 µM, first compound 0.0316 µM
  viability, T/C: 100%
Second compound 3.16 µM, first compound 0.1 µM
  viability, T/C: 119%
Second compound 3.16 µM, first compound 0.316 µM
  viability, T/C: 124%
Second compound 3.16 µM, first compound 1 µM
  viability, T/C: 108%
Second compound 10 µM, first compound 0.00316 µM
  viability, T/C: 78.3%
Second compound 10 µM, first compound 0.01 µM
  viability, T/C: 88%
Second compound 10 µM, first compound 0.0316 µM
  viability, T/C: 95.9%
Second compound 10 µM, first compound 0.1 µM
  viability, T/C: 97.7%
Second compound 10 µM, first compound 0.316 µM
  viability, T/C: 102%
Second compound 10 µM, first compound 1 µM
  viability, T/C: 78.3%
